Reference: article PMC5142287, “Weight control interventions improve therapeutic efficacy of dacarbazine in melanoma by reversing obesity-induced drug resistance” (Cancer & Metabolism, 2016)
“Also recorded” adds a separate entry of the source.

Experiments:
[1] = LC-MS/MS quantitation of DTIC in tumor, plasma, liver and adipose tissue
Description: The samples were introduced to the mass spectrometer through a reversed-phase column (Agilent ZORBAX SB-C18, 2.1 × 30 mm, 3.5 μm). The mobile phase containing water and acetonitrile with 0.1% formic acid was infused at a flow rate of 0.4 ml min^−1. The MS scan range was set between 100 and 1000 m/z, with the dry gas flow and dry gas temperature maintained at 6 L min^−1 and 320 °C, respectively. […] All the mass spectrometric data were acquired in positive ionization mode using Agilent MassHunter data acquisition software, version B.05.01. MassHunter Quantitative analysis software, version B.07.00 was used for the generation of calibration curves and subsequent quantitation of DTIC in the samples. Calibration curves were created using linear fitting, 1/x weighting and including the origin. Calibration standards (0.5–800 ng) were prepared using standard DTIC. All the samples including the standard DTIC preparations were spiked with leucine enkephalin (10 ng) as internal standard. […] The quantitation capability of this method is evaluated by using samples with known concentrations.

B16F10 cells [2] = assay: MTT assay, B16F10 cells grown in conditioned medium from 3T3-L1 cells; conditions: for IC50: Mus musculus, 10 days, DTIC 48 h, MTT
B16F10 cells [3] = assay: Long-term survival assay, B16F10 cells in serum from experimental mice; format: cell-based, Murine
Description: After 24 h, DMEM containing 5% serum collected from experimental C57BL/6J mice (as illustrated in Fig. 1) was added and cells were cultured chronically for 10 days.

[4] = system: FASN, P-gp, Cav-1, pAkt, PCNA, and cyclin D1; assay: Western blot of tumor lysates of B16F10-isografted mice; format: in vivo, C57BL/6J mice
Description: Melanoma tumor samples or cells were washed three to five times with ice-cold PBS and lysed in ice-cold RIPA lysis buffer as described previously. Briefly, the samples were centrifuged at 12000 RPM for 40 min and clear supernatants were stored at −80 °C. Protein concentrations were determined by Coomassie Plus Protein Assay Reagent (Thermo Scientific, IL, USA). Equal amounts of protein samples (50–100 μg) were resolved on 8–10% SDS-polyacrylamide gel and then transferred onto PVDF membrane (Millipore, MA, USA). […] After washing, the membranes were incubated with HRP-conjugated secondary antibodies (1:2000) and blots were developed using luminescence detection reagents (Santa Cruz Biotechnology, CA, USA).

B16F10 melanoma [5] = assay: B16F10 melanoma isograft in ND C57BL/6J mice: tumor growth and survival
Description: Melanoma cells were injected and orlistat treatment was continued. Following tumor formation, all groups of mice were treated with vehicle (acidified water) or DTIC, and tumor volume was followed up in these mice throughout the study as mentioned above. […] At the end of the experiment, mice were sacrificed, tumors were excised, and the samples were immediately preserved at −80 °C until further use. Five mice from each group were followed up for survival studies as mentioned above.

B16F10 cells [6] = assay: Long-term survival assay, B16F10 cells in CM from 3T3-L1 cells; format: cell-based, Murine
Description: 3T3-L1 cells were plated in 35-mm dishes and differentiated as described, along with vehicle or orlistat treatment (50 μM).

[7] = Obesity-associated factors in B16F10-isografted ND C57BL/6J mice; format: in vivo; conditions: end of experiment
Excerpt: (§1) Blood glucose levels and serum lipids were estimated as described previously. Insulin, leptin, and adiponectin levels in the serum were estimated by mouse-specific respective ELISA kits as described. Resistin, IL-6, and TNF-α levels in the serum were detected by indirect ELISA as described previously.

[8] = Obesity-associated factors in B16F10-isografted HFD C57BL/6J mice (body weight, blood glucose, serum lipids, ELISA); format: in vivo; conditions: end of experiment, mean ± SD
Excerpt: C57BL/6J mice were procured from Experimental Animal Facility (EAF) at National Centre for Cell Science (NCCS), Pune, India. High fat diet (24% fat) was purchased from Provimi Animal Nutrition Pvt. Ltd., Bangalore, India, and normal diet (5% fat) was obtained from Amrut Laboratory, Pune, India. The compositions of diets are provided in supplementary data (Additional file 1: Table S1). Diet-induced obesity was developed in the mice by feeding them with high fat diet as described previously. Male C57BL/6J mice (6–8 weeks old) were divided into normal diet (ND) and high fat diet (HFD) group. ND group was fed with normal diet while HFD group was fed with high fat diet supplemented with ground nut and dried coconut for 6 months. Body weight and serum chemistry profile were measured monthly to verify obesity-associated changes. Water and food were provided ad libitum to all the mice. All animal experiments were carried out as per the requirement and guidelines of the Committee for the Purpose of Control and Supervision of Experiments on Animals (CPCSEA), Government of India, and after obtaining permission of the Institutional Animal Ethics Committee (IAEC).
as §1
(§2) To study the impact of diet-induced obesity on the outcome of DTIC therapy in melanoma, we treated B16F10 melanoma isografted obese mice with DTIC purchased from Sigma, USA (80 mg/kg intraperitoneally for five consecutive days as described previously). In addition, to look into the impact of weight loss interventions on the outcome of DTIC therapy in obese mice, mice were administered with orlistat (an antiobesity drug known to inhibit gastrointestinal lipases) and/or shifted from high fat to normal diet followed by DTIC treatment. The detailed experimental plan is illustrated in Fig. 1a. Briefly, obese mice were administered orally with orlistat (10 mg/kg on every alternate day) purchased from Enzo Life Sciences, NY, USA, and/or shifted from high fat diet to normal diet. HFD C57BL/6J mice treated with vehicle or orlistat were termed as HFD-HFD Ctrl and HFD-HFD Orli (N = 11 per each group), respectively, whereas HFD C57BL/6J mice shifted to normal diet and treated with vehicle or orlistat were grouped as HFD-ND Ctrl and HFD-ND Orli (N = 11 per each group), respectively. After 15 days, these mice were injected subcutaneously (s.c.) with B16F10 cells (2 × 10^5) in 100 μl of PBS and monitored daily for the presence of palpable tumors and dimensions were recorded on alternate days. […] Tumor volume was calculated using the formula 0.52 × length × width^2 and was followed up throughout the study.

B16F10 cells [9] = assay: MTT assay, B16F10 cells grown in medium with 5% serum of ND or HFD mice; conditions: for IC50: Mus musculus, cells grown 10 days, DTIC 48 h, MTT
B16F10 melanoma [10] = assay: B16F10 melanoma isograft in HFD (obese) C57BL/6J mice: tumor growth and survival; format: in vivo
Description: as §2

Question: Which results are given for `CN(C)/N=N/c1[nH]cnc1C(N)=O` [DTIC, Dacarbazine]?
Answer: DTIC level in the plasma, liver, and adipose tissue ([1]; HFD mice compared to ND mice): higher; Level of DTIC in tumors from HFD mice, fold less than in ND counterparts ([1]; tumor, mass spectrometry): ~ 6 fold; Increase of concentration for 50% cell killing, CM of differentiated adipocytes vs preadipocytes (B16F10 cells [2]; B16F10 cells): ~ 5 fold; IC50 (B16F10 cells [2]; B16-F10, CM from differentiated adipocytes (ID)): 3250 µM; IC50 (B16F10 cells [2]; B16-F10, CM from undifferentiated preadipocytes (PA)): 649 µM; Increase of sensitivity to DTIC (B16F10 cells [3]; HFD serum, FASN, Cav-1 and P-gp simultaneously inhibited (cerulenin, methyl β-cyclodextrin, verapamil)): approximately 80%; Reduction of cell survival (B16F10 cells [3]; serum from orlistat-treated or diet-shifted obese mice, DTIC at 1415 μM): approximately 70%; Level of P-gp in tumors ([4]; HFD mice): further increased; Protein levels of cyclin D1 and PCNA in tumors ([4]; HFD mice): increase; Cav-1 levels in tumors ([4]; HFD mice treated with DTIC): elevated; FASN level in tumors ([4]; HFD mice treated with DTIC): further increased; Level of P-gp in tumors ([4]; ND mice): reduced; Protein levels of cyclin D1 and PCNA in tumors ([4]; ND mice): reduced levels; FASN and Cav-1 level in tumors ([4]; ND mice treated with DTIC): much lower; Survival of tumor-bearing mice (B16F10 melanoma [5]): prolonged; Tumor progression (tumor volume and weight) (B16F10 melanoma [5]; DTIC 80 mg/kg i.p. 5 days, orlistat 10 mg/kg oral alternate days): significantly reduced; also recorded: significantly decreased; Effect on survival (B16F10 cells [6]; CM from differentiated ID adipocytes): did not remarkably affect; Improvement of sensitivity to DTIC (B16F10 cells [6]; CM from differentiated adipocytes, simultaneous treatment with all three inhibitors (FASN, Cav-1, P-gp)): approximately 80%; Survival remaining (B16F10 cells [6]; CM from orlistat-treated differentiating adipocytes, DTIC at 649 μM): approximately 30%; Blood glucose ([7]; mean): 161.17 mg/dL; Serum IL-6 ([7]; mean): 20.19 pg/mL; Serum LDLc ([7]; mean): 53.12 mg/dL; Serum TG ([7]; mean): 55.40 mg/dL; Serum TNF-D ([7]; mean): 12.35 pg/mL; Serum adiponectin ([7]; mean): 13873 ng/mL; Serum cholesterol ([7]; mean): 82.82 mg/dL; Serum free fatty acids ([7]; mean): 0.90 mM/L; Serum insulin ([7]; mean): 0.114 µg/L; Serum leptin ([7]; mean): 15.74 ng/mL; Serum resistin ([7]; mean): 0.99 ng/mL; Body weight ([7]; mean (SD on next line)): 21.1 g; Body weight ([8]; HFD-HFD (continued on HFD), orlistat 10 mg/kg oral alternate days, DTIC 80 mg/kg i.p. 5 days): 32.28 ± 1.70 (p = 0.999) g; Blood glucose ([8]; HFD-HFD): 194.50 ± 6.98 (p = 0.9997) mg/dl; Serum IL-6 ([8]; HFD-HFD): 44.99 ± 1.58 (p = 0.9999) pg/ml; Serum LDLc ([8]; HFD-HFD): 85.01 ± 1.17 (p = 0.9999) mg/dl; Serum TG ([8]; HFD-HFD): 84.17 ± 1.15 (p = 0.9999) mg/dl; Serum TNF-α ([8]; HFD-HFD): 28.67 ± 0.99 (p = 0.9708) pg/ml; Serum adiponectin ([8]; HFD-HFD): 3421 ± 198 (p = 0.9999) ng/ml; Serum cholesterol ([8]; HFD-HFD): 120.54 ± 4.49 (p = 0.9995) mg/dl; Serum free fatty acids ([8]; HFD-HFD): 2.20 ± 0.04 (p = 0.9993) mM/l; Serum insulin ([8]; HFD-HFD): 0.385 ± 0.016 (p = 0.8701) μg/l; Serum leptin ([8]; HFD-HFD): 43.11 ± 1.65 (p = 0.9999) ng/ml; Serum resistin ([8]; HFD-HFD): 2.23 ± 0.11 (p = 0.9999) ng/ml; Blood glucose ([8]; HFD-ND): 177.5 ± 5.05 (p = 0.0001) mg/dl; Serum IL-6 ([8]; HFD-ND): 35.59 ± 2.38 (p < 0.0001) pg/ml; Serum TG ([8]; HFD-ND): 69.15 ± 2.41 (p < 0.0001) mg/dl; Serum TNF-α ([8]; HFD-ND): 16.17 ± 1.91 (p < 0.0001) pg/ml; Serum adiponectin ([8]; HFD-ND): 5133 ± 228 (p < 0.0001) ng/ml; Serum free fatty acids ([8]; HFD-ND): 1.81 ± 0.05 (p < 0.0001) mM/l; Serum insulin ([8]; HFD-ND): 0.301 ± 0.02 (p < 0.0001) μg/l; Serum leptin ([8]; HFD-ND): 34.54 ± 2.3 (p < 0.0001) ng/ml; Serum resistin ([8]; HFD-ND): 1.82 ± 0.10 (p < 0.0001) ng/ml; Increase of IC50 in HFD serum vs ND serum (B16F10 cells [9]; B16F10 cells): ~ 5 fold; IC50 (B16F10 cells [9]; B16-F10, HFD serum (5%)): 6690 µM; IC50 (B16F10 cells [9]; B16-F10, ND serum (5%)): 1420 µM; Survivability of tumor-bearing mice (B16F10 melanoma [10]; HFD mice): 60 days; Survival of tumor-bearing mice (B16F10 melanoma [10]; HFD mice): reduced; Survivability increase (B16F10 melanoma [10]; tumor-bearing HFD mice under weight control by orlistat treatment or diet shifting, DTIC therapy): 40%
